Patent US8119569B2, “Benzoylpyrazole compounds, process for their production and herbicides containing them” (Ishihara Sangyo Kaisha, Ltd., priority 2006, dated 2012)

Assays:
Assay type in all cases: in vivo
[1] = tested on: Japanese ribbon waparo (Sagittaria pygmaea); experiment: Test Example 4: paddy field pot, water application; conditions: 63 g/ha, 14th day after application
From the text: (§1) Paddy field soil was put into a 1/1,000,000 hectare pot, and seeds of barnyardgrass (Echinochloa oryzicola vasing.) and Japanese bulrush (Scirpus juncoides) were sown and lightly covered with soil. Then, pot was left to stand in a greenhouse in a state irrigated to a water depth of from 0.5 to 1 cm, and next day or two days later, tubers of Japanese ribbon waparo (Sagittaria pygmaea) were planted. Then, the irrigated water depth was maintained to be from 3 to 4 cm, and when barnyardgrass and Japanese bulrush reached 0.5 leaf stage, and Japanese ribbon waparo reached primary leaf stage, a water diluted solution of a wettable powder or an emulsifieable concentrate of the compound of the present invention prepared in accordance with a conventional preparation method, was uniformly dropwise applied by a pipette so that the amount of active ingredients would be a prescribed amount. Further, paddy field soil was put into a 1/1,000,000 pot, followed by soil puddling to an irrigated water depth of from 3 to 4 cm. Next day, rice (Oryza sativa L.) (var.: Nihonbare) of two leaf stage was transplanted in a transplantation depth of 3 cm. On the 4th day after transplantation, the compound of the present invention was applied in the same manner as described above.

[2] = tested on: Japanese bulrush (Scirpus juncoides); experiment: Test Example 4: paddy field pot, water application; conditions: 63 g/ha, 14th day after application
From the text: as §1

[3] = tested on: barnyardgrass (Echinochloa oryzicola vasing.); experiment: Test Example 4: paddy field pot, water application; conditions: 63 g/ha, 14th day after application
From the text: as §1

[4] = tested on: velvetleaf (Abutilon theophrasti MEDIC.); experiment: Test Example 1: foliar treatment, upland pot; conditions: 7 g/ha, 21st day after application
From the text: Upland field soil was put into a 1/170,000 hectare pot, and seeds of various plants were sown. […] The spray solutions thus prepared were applied for foliar treatment by a small sprayer.

[5] = tested on: rice (Oryza sativa L.) (var.: Nihonbare); experiment: Test Example 4: paddy field pot, water application, transplanted rice; conditions: 63 g/ha, 21st day after application, crop
From the text: as §1

[6] = tested on: green foxtail (Setaria viridis L.); experiment: Test Example 2: soil application on the day after sowing; conditions: 250 g/ha, 19th to 22nd day after application
From the text: (§2) Upland field soil was put into a 1/170,000 hectare pot, and seeds of various plants (barnyardgrass (Echinochloa crus-galli L.), crabgrass (Digitaria sanguinalis L.), green foxtail (Setaria viridis L.), redroot pigweed (Amaranthus retroflexus L.), prickly sida (Sida spinosa L.), velvetleaf (Abutilon theophrasti MEDIC.), rice (oryza sativa L.), corn (Zea mays L.) and soybean (Glycine max Merr.)) were sown. On the day after sowing, wettable powders or emulsifiable concentrates of the compounds of the present invention prepared in accordance with a conventional preparation method, were weighed so that the active ingredients became the prescribed amounts, and diluted with water in an amount corresponding to 500 liter per 1 hectare, followed by soil application with a small sprayer.

[7] = tested on: soybean (Glycine max Merr.); experiment: as above; conditions: 250 g/ha, 19th to 22nd day after application, crop
From the text: as §2

[8] = tested on: velvetleaf (Abutilon theophrasti MEDIC.); experiment: as above; conditions: 250 g/ha, 19th to 22nd day after application
From the text: as §2

[9] = tested on: crabgrass (Digitaria sanguinalis L.); experiment: as above; conditions: 250 g/ha, 19th to 22nd day after application
From the text: as §2

corn (Zea mays L.) [10] = experiment: as above; conditions: 250 g/ha, 19th to 22nd day after application, crop
From the text: as §2

[11] = tested on: barnyardgrass (Echinochloa crus-galli L.); experiment: as above; conditions: 250 g/ha, 19th to 22nd day after application
From the text: as §2

[12] = tested on: prickly sida (Sida spinosa L.); experiment: as above; conditions: 250 g/ha, 19th to 22nd day after application
From the text: as §2

rice (Oryza sativa L.) [13] = experiment: as above; conditions: 250 g/ha, 19th to 22nd day after application, crop
From the text: as §2

[14] = tested on: redroot pigweed (Amaranthus retroflexus L.); experiment: as above; conditions: 250 g/ha, 19th to 22nd day after application
From the text: as §2

[15] = tested on: green foxtail (Setaria viridis L.); experiment: Test Example 1: foliar treatment, upland pot; conditions: 7 g/ha, 21st day after application
From the text: (§3) Upland field soil was put into a 1/170,000 hectare pot, and seeds of various plants were sown. When the respective plants reached predetermined leaf stage ((1) barnyardgrass (Echinochloa crus-galli L.): 1.0 to 3.3 leaf stage, (2) crabgrass (Digitaria sanguinalis L.): 1.2 to 3.0 leaf stage, (3) green foxtail (Setaria viridis L.): 1.5 to 3.3 leaf stage, (4) redroot pigweed (Amaranthus retroflexus L.): 0.1 to 2.0 leaf stage, (5) prickly sida (Sida spinosa L.): cotyledon stage to 2.0 leaf stage, (6) velvetleaf (Abutilon theophrasti MEDIC.): 0.1 to 2.0 leaf stage, (7) rice (Oryza sativa L.): 1.3 to 3.0 leaf stage, (8) corn (Zea mays L.): 2.5 to 3.4 leaf stage, and (9) soybean (Glycine max Merr.): primary leaf stage to 0.3 leaf stage), wettable powders or emulsifiable concentrates of the compounds of the present invention prepared in accordance with a conventional preparation method, were weighed so that the active ingredients became the prescribed amounts, and diluted with water in an amount corresponding to 500 liter per 1 hectare (containing 0.1 vol % of an agricultural spreader (“KUSARINOH”, manufactured by NIHON NOHYAKU CO., LTD.)). The spray solutions thus prepared were applied for foliar treatment by a small sprayer.

[16] = tested on: soybean (Glycine max Merr.); experiment: Test Example 1: foliar treatment, upland pot; conditions: 7 g/ha, 21st day after application, crop
From the text: as §3

[17] = tested on: crabgrass (Digitaria sanguinalis L.); experiment: Test Example 1: foliar treatment, upland pot; conditions: 7 g/ha, 21st day after application
From the text: as §3

corn (Zea mays L.) [18] = experiment: Test Example 1: foliar treatment, upland pot; conditions: 7 g/ha, 21st day after application, crop
From the text: as §3

[19] = tested on: barnyardgrass (Echinochloa crus-galli L.); experiment: Test Example 1: foliar treatment, upland pot; conditions: 7 g/ha, 21st day after application
From the text: as §3

[20] = tested on: prickly sida (Sida spinosa L.); experiment: Test Example 1: foliar treatment, upland pot; conditions: 7 g/ha, 21st day after application
From the text: as §3

rice (Oryza sativa L.) [21] = experiment: Test Example 1: foliar treatment, upland pot; conditions: 7 g/ha, 21st day after application, crop
From the text: as §3

[22] = tested on: redroot pigweed (Amaranthus retroflexus L.); experiment: Test Example 1: foliar treatment, upland pot; conditions: 7 g/ha, 21st day after application
From the text: as §3

Compound	Growth inhibition rate (%) Japanese ribbon waparo [1] [%]	Growth inhibition rate (%) Japanese bulrush [2] [%]	Growth inhibition rate (%) Barnyardgrass [3] [%]	Growth inhibition rate (%) Velvetleaf [4] [%]	Growth inhibition rate (%) Rice [5] [%]	Growth inhibition rate (%) Green foxtail [6] [%]	Growth inhibition rate (%) Velvetleaf [8] [%]	Growth inhibition rate (%) Crabgrass [9] [%]	Growth inhibition rate (%) Corn (corn (Zea mays L.) [10]) [%]	Growth inhibition rate (%) Barnyardgrass [11] [%]	Growth inhibition rate (%) Prickly sida [12] [%]	Growth inhibition rate (%) Rice (rice (Oryza sativa L.) [13]) [%]	Growth inhibition rate (%) Redroot pigweed [14] [%]	Growth inhibition rate (%) Green foxtail [15] [%]	Growth inhibition rate (%) Soybean [16] [%]	Growth inhibition rate (%) Crabgrass [17] [%]	Growth inhibition rate (%) Corn (corn (Zea mays L.) [18]) [%]	Growth inhibition rate (%) Barnyardgrass [19] [%]	Growth inhibition rate (%) Rice (rice (Oryza sativa L.) [21]) [%]	Growth inhibition rate (%) Redroot pigweed [22] [%]	other results
CCOC(=O)OC(C)Oc1c(C(=O)c2ccc(S(C)(=O)=O)c(OCCOC)c2C)c(C)nn1C (racemic) [compound 11]	60	100	98	60	60	100	70	100	0	100	40	100	100	90	70	90	0	90	80	80	Growth inhibition rate (%) Soybean [7]: 20%; Growth inhibition rate (%) Prickly sida [20]: 10%
CCOC(=O)OC(C)Oc1c(C(=O)c2ccc(S(C)(=O)=O)c(OCCOC)c2C)cnn1C(C)C (racemic) [compound 18]	90	90	100	95	0	100	100	100	0	100	70	100	100	90	80	95	0	95	70	95	Growth inhibition rate (%) Prickly sida [20]: 30%
COCCOc1c(S(C)(=O)=O)ccc(C(=O)c2cnn(C)c2OC(C)OC(=O)OC(C)C)c1C (racemic) [compound 4]	90	95	100	98	50	95	70	100	0	100	90	90	95	100	90	90	0	100	30	90	Growth inhibition rate (%) Soybean [7]: 0%; Growth inhibition rate (%) Prickly sida [20]: 40%
CCOC(=O)OC(C)Oc1c(C(=O)c2ccc(S(C)(=O)=O)c(COCC(F)(F)F)c2C)cnn1C (racemic) [compound 15]	–	60	100	98	10	100	100	100	0	100	70	100	100	75	75	95	10	70	40	90	Growth inhibition rate (%) Soybean [7]: 0%; Growth inhibition rate (%) Prickly sida [20]: 0%
CCOC(=O)OC(C)Oc1c(C(=O)c2ccc(S(C)(=O)=O)c(C(=O)OC)c2C)cnn1C (racemic) [compound 21]	70	70	100	85	10	100	90	100	0	100	60	100	100	80	95	90	0	90	80	90	Growth inhibition rate (%) Soybean [7]: 50%
